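Each compound was tested at five concentrations against cells in 96-well plates for 48 hours. Abbreviation: GI50, concentration required for 50% inhibition of growth. TGI: concentration producing complete growth inhibition.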
Legend:
Assay in all cases: NCI anticancer screen, dose series, 48 h
[1] = tested on: U251 CNS
[2] = tested on: A498 renal
[3] = tested on: SK-MEL-28 melanoma
[4] = tested on: T-47D breast
[5] = tested on: OVCAR-3 ovarian
[6] = tested on: OVCAR-4 ovarian
[7] = tested on: UO-31 renal
[8] = tested on: SK-OV-3 ovarian
[9] = tested on: SF-268 CNS
[10] = tested on: PC-3 prostate
[11] = tested on: COLO 205 colon
[12] = tested on: SNB-75 CNS
[13] = tested on: SNB-19 CNS
[14] = tested on: NCI-H460 lung
[15] = tested on: SN12C renal
[16] = tested on: SF-539 CNS
[17] = tested on: EKVX NSCLC
[18] = tested on: UACC-62 melanoma
[19] = tested on: SF-295 CNS
[20] = tested on: MALME-3M melanoma
[21] = tested on: LOX IMVI melanoma
[22] = tested on: NCI-H23 lung
[23] = tested on: M14 melanoma
[24] = tested on: KM12 colon
[25] = tested on: HS 578T breast
[26] = tested on: NCI/ADR-RES ovarian
[27] = tested on: HCC-2998 colon
[28] = tested on: MDA-MB-435
[29] = tested on: SK-MEL-5 melanoma
[30] = tested on: HCT-15 colon
[31] = tested on: MCF7 breast
[32] = tested on: NCI-H226 lung
[33] = tested on: 786-0 renal
[34] = tested on: RPMI-8226 leukemia
[35] = tested on: MDA-MB-231 breast
[36] = tested on: HOP-92 NSCLC
[37] = tested on: SK-MEL-2 melanoma
[38] = tested on: SW-620 colon
[39] = tested on: OVCAR-5 ovarian
[40] = tested on: NCI-H522 lung
[41] = tested on: CCRF-CEM leukemia
[42] = tested on: K-562 leukemia
[43] = tested on: UACC-257 melanoma
[44] = tested on: CAKI-1 renal
[45] = tested on: RXF 393 renal
[46] = tested on: HOP-62 NSCLC
[47] = tested on: TK-10 renal
[48] = tested on: OVCAR-8 ovarian
[49] = tested on: A549 NSCLC
[50] = tested on: IGROV1 ovarian
[51] = tested on: BT-549 breast
[52] = tested on: ACHN renal
[53] = tested on: HT29 colon
[54] = tested on: HCT-116 colon
[55] = tested on: DU-145 prostate

For CC1OC2CC(=O)OC2C2=C1C(=O)c1c(O)cccc1C2=O (centres undefined), which GI50 [1] is on record?
Its GI50 is 167 nM.

And the TGI [1]?
Its TGI is 492 nM.

What about the GI50 [2] of the same compound?
Its GI50 is 348 nM.

And the TGI [2]?
Its TGI is 1380 nM.

What about the GI50 [3] of the same compound?
Its GI50 is 54.8 nM.

What about the TGI [3] of the same compound?
The TGI was 191 nM.

What about the GI50 [4] of the same compound?
The GI50 was 106 nM.

And the TGI [4]?
The TGI was 351 nM.

And the GI50 [5]?
The GI50 was 29.7 nM.

What about the TGI [5] of the same compound?
The TGI was 85.1 nM.

What about the GI50 [6] of the same compound?
Its GI50 is 113 nM.

And the TGI [6]?
Its TGI is 253 nM.

And the GI50 [7]?
Its GI50 is 72.5 nM.

And the TGI [7]?
The TGI was 230 nM.

What about the GI50 [8] of the same compound?
Its GI50 is 1340 nM.

And the TGI [8]?
Its TGI is 2670 nM.

And the GI50 [9]?
Its GI50 is 163 nM.

And the TGI [9]?
The TGI was 436 nM.

What about the GI50 [10] of the same compound?
The GI50 was 242 nM.

And the TGI [10]?
The TGI was 965 nM.

And the GI50 [11]?
The GI50 was 17.7 nM.

What about the TGI [11] of the same compound?
The TGI was 40.5 nM.

What about the GI50 [12] of the same compound?
The GI50 was 130 nM.

What about the TGI [12] of the same compound?
The TGI was 317 nM.

What about the GI50 [13] of the same compound?
The GI50 was 1080 nM.

And the TGI [13]?
Its TGI is 2480 nM.

And the GI50 [14]?
Its GI50 is 415 nM.

What about the TGI [14] of the same compound?
The TGI was 1750 nM.

And the GI50 [15]?
The GI50 was 116 nM.

And the TGI [15]?
The TGI was 259 nM.

And the GI50 [16]?
Its GI50 is 120 nM.

What about the TGI [16] of the same compound?
Its TGI is 284 nM.

What about the GI50 [17] of the same compound?
Its GI50 is 407 nM.

And the TGI [17]?
The TGI was 1590 nM.

And the GI50 [18]?
Its GI50 is 135 nM.

What about the TGI [18] of the same compound?
The TGI was 287 nM.

What about the GI50 [19] of the same compound?
The GI50 was 956 nM.

And the TGI [19]?
Its TGI is 2620 nM.

What about the GI50 [20] of the same compound?
Its GI50 is 23.5 nM.

What about the TGI [20] of the same compound?
Its TGI is 69.5 nM.

And the GI50 [21]?
Its GI50 is 34.2 nM.

And the TGI [21]?
The TGI was 129 nM.

And the GI50 [22]?
Its GI50 is 142 nM.

And the TGI [22]?
The TGI was 426 nM.

And the GI50 [23]?
The GI50 was 61.1 nM.

And the TGI [23]?
The TGI was 193 nM.

What about the GI50 [24] of the same compound?
Its GI50 is 176 nM.

What about the TGI [24] of the same compound?
Its TGI is 392 nM.

What about the GI50 [25] of the same compound?
The GI50 was 261 nM.

And the GI50 [26]?
Its GI50 is 89.2 nM.

And the TGI [26]?
The TGI was 646 nM.

And the GI50 [27]?
The GI50 was 236 nM.

And the TGI [27]?
Its TGI is 558 nM.

What about the GI50 [28] of the same compound?
The GI50 was 49.3 nM.

And the TGI [28]?
Its TGI is 214 nM.

What about the GI50 [29] of the same compound?
Its GI50 is 124 nM.

What about the TGI [29] of the same compound?
The TGI was 251 nM.

What about the GI50 [30] of the same compound?
Its GI50 is 31.4 nM.

What about the TGI [30] of the same compound?
Its TGI is 150 nM.

What about the GI50 [31] of the same compound?
Its GI50 is 18.3 nM.

And the TGI [31]?
Its TGI is 58.1 nM.

What about the GI50 [32] of the same compound?
The GI50 was 454 nM.

And the TGI [32]?
The TGI was 929 nM.

And the GI50 [33]?
The GI50 was 149 nM.

What about the TGI [33] of the same compound?
The TGI was 292 nM.

And the GI50 [34]?
Its GI50 is 58.7 nM.

And the TGI [34]?
The TGI was 602 nM.

What about the GI50 [35] of the same compound?
The GI50 was 68.4 nM.

What about the TGI [35] of the same compound?
Its TGI is 334 nM.

What about the GI50 [36] of the same compound?
The GI50 was 151 nM.

And the TGI [36]?
The TGI was 315 nM.

What about the GI50 [37] of the same compound?
Its GI50 is 88.5 nM.

What about the TGI [37] of the same compound?
Its TGI is 272 nM.

What about the GI50 [38] of the same compound?
Its GI50 is 41.1 nM.

And the TGI [38]?
Its TGI is 154 nM.

And the GI50 [39]?
The GI50 was 204 nM.

What about the TGI [39] of the same compound?
The TGI was 440 nM.

What about the GI50 [40] of the same compound?
Its GI50 is under 16.8 nM.

And the TGI [40]?
Its TGI is 40.2 nM.

And the GI50 [41]?
The GI50 was 26.9 nM.

What about the TGI [41] of the same compound?
Its TGI is 501 nM.

And the GI50 [42]?
Its GI50 is 29.8 nM.

And the TGI [42]?
Its TGI is over 100000 nM.

And the GI50 [43]?
The GI50 was 74.8 nM.

What about the TGI [43] of the same compound?
Its TGI is 217 nM.

What about the GI50 [44] of the same compound?
The GI50 was 42.3 nM.

What about the TGI [44] of the same compound?
Its TGI is 148 nM.

And the GI50 [45]?
The GI50 was 19.5 nM.

What about the TGI [45] of the same compound?
Its TGI is 49.9 nM.

What about the GI50 [46] of the same compound?
The GI50 was 182 nM.

What about the TGI [46] of the same compound?
Its TGI is 366 nM.

What about the GI50 [47] of the same compound?
The GI50 was 79.5 nM.

And the TGI [47]?
The TGI was 283 nM.

And the GI50 [48]?
The GI50 was 50.1 nM.

And the TGI [48]?
Its TGI is 360 nM.

What about the GI50 [49] of the same compound?
Its GI50 is 831 nM.

What about the TGI [49] of the same compound?
The TGI was 2680 nM.

What about the GI50 [50] of the same compound?
Its GI50 is 50.8 nM.

And the TGI [50]?
Its TGI is 112 nM.

And the GI50 [51]?
Its GI50 is 177 nM.

And the TGI [51]?
Its TGI is 368 nM.

What about the GI50 [52] of the same compound?
The GI50 was 29.9 nM.

And the TGI [52]?
Its TGI is 99.2 nM.

And the GI50 [53]?
The GI50 was 31.2 nM.

What about the TGI [53] of the same compound?
The TGI was 113 nM.

What about the GI50 [54] of the same compound?
Its GI50 is 28.6 nM.

What about the TGI [54] of the same compound?
Its TGI is 107 nM.

And the GI50 [55]?
The GI50 was 150 nM.

What about the TGI [55] of the same compound?
Its TGI is 284 nM.
